Measured values taken from BindingDB's records for doi:10.1124/jpet.102.044826 (Taisho Pharmaceutical, 2003).

Columns and labels:
[1] = target: T1, Alpha-1A adrenergic receptor (Rattus norvegicus, UniProt P43140)
T1 sequence (P43140 whole entry): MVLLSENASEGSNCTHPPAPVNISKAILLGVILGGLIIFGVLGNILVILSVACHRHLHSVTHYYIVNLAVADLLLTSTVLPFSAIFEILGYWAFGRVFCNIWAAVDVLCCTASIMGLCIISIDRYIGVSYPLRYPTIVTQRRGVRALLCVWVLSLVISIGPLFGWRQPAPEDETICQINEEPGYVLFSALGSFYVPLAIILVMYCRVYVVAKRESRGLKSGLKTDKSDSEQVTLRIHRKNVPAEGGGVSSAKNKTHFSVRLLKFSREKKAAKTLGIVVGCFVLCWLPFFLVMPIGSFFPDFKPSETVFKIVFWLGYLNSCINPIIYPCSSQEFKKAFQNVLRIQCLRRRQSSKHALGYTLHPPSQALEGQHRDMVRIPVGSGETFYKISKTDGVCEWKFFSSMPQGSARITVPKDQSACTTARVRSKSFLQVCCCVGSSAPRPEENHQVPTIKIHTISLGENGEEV

[2] = target: T2, Alpha-2C adrenergic receptor (Homo sapiens, UniProt P18825)
T2 sequence (P18825 whole entry): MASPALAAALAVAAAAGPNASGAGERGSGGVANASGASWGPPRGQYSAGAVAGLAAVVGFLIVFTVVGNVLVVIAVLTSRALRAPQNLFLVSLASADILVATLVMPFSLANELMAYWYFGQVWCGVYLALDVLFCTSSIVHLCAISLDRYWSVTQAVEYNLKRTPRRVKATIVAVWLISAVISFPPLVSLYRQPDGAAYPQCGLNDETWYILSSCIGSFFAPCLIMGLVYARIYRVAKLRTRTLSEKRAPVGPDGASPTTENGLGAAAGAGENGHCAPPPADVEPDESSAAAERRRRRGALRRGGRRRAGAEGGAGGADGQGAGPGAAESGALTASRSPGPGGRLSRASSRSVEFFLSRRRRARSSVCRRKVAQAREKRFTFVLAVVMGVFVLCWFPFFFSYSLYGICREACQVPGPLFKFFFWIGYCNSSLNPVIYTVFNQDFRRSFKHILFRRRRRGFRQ

COc1ccc2ccccc2c1CCCCN1CCN(C[C@H](c2ccc(F)cc2)N2CCN(C(C)C)CC2)CC1 [MCL0129]
IC50 [1]: 630 nM
IC50 [2]: 1000 nM
